From ChEMBL document CHEMBL4052588, “Design of a Biased Potent Small Molecule Inhibitor of the Bromodomain and PHD Finger-Containing (BRPF) Proteins Suitable for Cellular and in Vivo Studies” (J Med Chem, 2017)
pIC50: −log10 of the molar value.

Key:
[1] = biological target: T1, Bromodomain-containing protein 9 (Homo sapiens, UniProt Q9H8M2); assay: Inhibition of human BRD9 expressed in Escherichia coli BL21 after 1 hr by BROMOscan assay
T1 sequence (Q9H8M2 whole entry): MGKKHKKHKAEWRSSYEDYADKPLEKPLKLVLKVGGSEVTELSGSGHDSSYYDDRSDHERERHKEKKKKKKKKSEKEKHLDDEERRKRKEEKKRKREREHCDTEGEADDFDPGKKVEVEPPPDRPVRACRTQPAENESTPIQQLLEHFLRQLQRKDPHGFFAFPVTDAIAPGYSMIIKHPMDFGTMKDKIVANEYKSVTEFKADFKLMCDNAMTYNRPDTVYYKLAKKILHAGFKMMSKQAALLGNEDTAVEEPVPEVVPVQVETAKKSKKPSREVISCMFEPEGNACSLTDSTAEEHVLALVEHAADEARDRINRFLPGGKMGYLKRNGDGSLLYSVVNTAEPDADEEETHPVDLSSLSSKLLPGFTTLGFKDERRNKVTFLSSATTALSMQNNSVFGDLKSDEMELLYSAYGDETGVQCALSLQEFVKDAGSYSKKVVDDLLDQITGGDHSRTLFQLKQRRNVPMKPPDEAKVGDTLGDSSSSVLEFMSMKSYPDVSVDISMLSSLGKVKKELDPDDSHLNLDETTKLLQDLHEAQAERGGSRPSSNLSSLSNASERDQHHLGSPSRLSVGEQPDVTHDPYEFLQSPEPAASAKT

[2] = biological target: T2, Bromodomain-containing protein 1 (Homo sapiens, UniProt O95696); assay: Inhibition of human BRPF2-BRD1 expressed in Escherichia coli BL21 after 1 hr by BROMOscan assay
T2 sequence (O95696 whole entry): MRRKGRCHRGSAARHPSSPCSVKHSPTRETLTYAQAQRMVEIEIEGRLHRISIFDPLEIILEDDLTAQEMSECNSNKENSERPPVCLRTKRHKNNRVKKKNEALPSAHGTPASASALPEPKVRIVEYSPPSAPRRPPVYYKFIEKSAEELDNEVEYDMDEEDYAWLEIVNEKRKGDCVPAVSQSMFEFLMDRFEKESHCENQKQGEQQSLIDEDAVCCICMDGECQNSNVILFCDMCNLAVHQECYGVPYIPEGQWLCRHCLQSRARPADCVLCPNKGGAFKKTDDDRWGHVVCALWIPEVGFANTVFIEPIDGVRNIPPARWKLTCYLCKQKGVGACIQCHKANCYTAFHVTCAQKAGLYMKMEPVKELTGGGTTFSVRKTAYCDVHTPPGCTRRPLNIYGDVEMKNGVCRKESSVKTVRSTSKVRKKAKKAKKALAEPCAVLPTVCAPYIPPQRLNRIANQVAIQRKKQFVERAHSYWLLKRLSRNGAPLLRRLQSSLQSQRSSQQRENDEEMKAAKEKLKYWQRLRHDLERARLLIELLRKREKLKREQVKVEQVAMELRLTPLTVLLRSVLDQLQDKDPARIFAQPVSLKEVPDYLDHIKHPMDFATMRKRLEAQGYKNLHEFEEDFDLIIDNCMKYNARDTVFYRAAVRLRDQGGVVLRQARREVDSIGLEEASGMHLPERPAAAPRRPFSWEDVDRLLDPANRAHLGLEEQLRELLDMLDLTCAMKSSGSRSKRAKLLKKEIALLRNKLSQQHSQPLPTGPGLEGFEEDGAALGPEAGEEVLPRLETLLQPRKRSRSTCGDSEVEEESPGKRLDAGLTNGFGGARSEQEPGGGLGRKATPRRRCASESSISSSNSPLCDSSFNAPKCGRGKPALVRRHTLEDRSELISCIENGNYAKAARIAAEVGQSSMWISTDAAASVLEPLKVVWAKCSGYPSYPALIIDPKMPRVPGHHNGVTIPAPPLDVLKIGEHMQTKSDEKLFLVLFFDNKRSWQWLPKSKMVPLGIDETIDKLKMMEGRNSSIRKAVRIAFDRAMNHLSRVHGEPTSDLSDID

[3] = biological target: T3, Bromodomain and PHD finger-containing protein 3 (Homo sapiens, UniProt Q9ULD4); assay: Inhibition of human BRPF3 expressed in Escherichia coli BL21 after 1 hr by BROMOscan assay
T3 sequence (Q9ULD4 whole entry): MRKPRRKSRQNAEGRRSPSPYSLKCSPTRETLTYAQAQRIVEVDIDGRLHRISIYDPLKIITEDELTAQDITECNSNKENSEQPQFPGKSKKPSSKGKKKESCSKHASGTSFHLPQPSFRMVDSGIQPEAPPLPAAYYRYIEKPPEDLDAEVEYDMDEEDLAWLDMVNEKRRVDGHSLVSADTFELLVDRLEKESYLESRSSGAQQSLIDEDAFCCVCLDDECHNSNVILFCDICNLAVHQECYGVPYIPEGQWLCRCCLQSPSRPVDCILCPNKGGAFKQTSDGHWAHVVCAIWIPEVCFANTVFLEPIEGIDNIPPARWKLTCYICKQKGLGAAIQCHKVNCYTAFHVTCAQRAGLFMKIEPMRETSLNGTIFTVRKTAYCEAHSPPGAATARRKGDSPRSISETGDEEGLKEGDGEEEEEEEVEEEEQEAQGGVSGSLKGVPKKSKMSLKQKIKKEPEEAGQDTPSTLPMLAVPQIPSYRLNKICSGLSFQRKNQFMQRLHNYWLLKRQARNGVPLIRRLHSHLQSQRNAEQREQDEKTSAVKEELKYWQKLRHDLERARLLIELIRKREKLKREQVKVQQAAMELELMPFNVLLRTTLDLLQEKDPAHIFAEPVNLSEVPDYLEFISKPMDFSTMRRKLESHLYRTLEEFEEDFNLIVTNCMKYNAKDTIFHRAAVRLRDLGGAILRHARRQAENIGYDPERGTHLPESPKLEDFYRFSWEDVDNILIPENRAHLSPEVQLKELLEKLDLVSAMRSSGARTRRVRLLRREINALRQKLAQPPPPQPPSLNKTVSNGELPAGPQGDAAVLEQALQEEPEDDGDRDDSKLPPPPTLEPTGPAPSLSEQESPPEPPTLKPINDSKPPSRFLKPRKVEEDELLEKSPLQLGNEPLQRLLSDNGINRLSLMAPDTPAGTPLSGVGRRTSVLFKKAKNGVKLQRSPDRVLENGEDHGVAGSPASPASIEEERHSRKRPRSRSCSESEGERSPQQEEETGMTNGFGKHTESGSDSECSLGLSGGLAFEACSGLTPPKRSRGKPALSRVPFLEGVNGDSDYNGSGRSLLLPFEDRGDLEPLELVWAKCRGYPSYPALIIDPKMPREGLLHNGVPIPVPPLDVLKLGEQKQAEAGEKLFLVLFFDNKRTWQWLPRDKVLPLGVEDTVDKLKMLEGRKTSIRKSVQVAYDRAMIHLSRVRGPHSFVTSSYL

[4] = biological target: Bromodomain-containing protein 4 (Homo sapiens, UniProt O60885); assay: Inhibition of human BRD4-BD1 expressed in Escherichia coli BL21 after 1 hr by BROMOscan assay

pIC50 [1] | pIC50 [2] | pIC50 [3] | pIC50 [4] | SMILES
6.05 | 5.74 | 5.03 | 4.77 | COc1cc2c(cc1NS(=O)(=O)c1ccc(C#N)cc1)c(C)cc(=O)n2C
< 4.00 | < 4.00 | < 4.00 | < 4.00 | CCc1cc2cc(NS(=O)(=O)c3ccc(C#N)cc3)ccc2n(CC)c1=O
6.51 | 7.32 | 6.59 | 5.35 | Cc1cc2cc(NS(=O)(=O)c3ccc(C#N)cc3)ccc2n(C)c1=O

Second part, the compound before the results:

SMILES | pIC50 [1] | pIC50 [2] | pIC50 [3] | pIC50 [4]
COc1ccccc1C(=O)Nc1cc2cc(C)c(=O)n(C)c2cc1N1CCCC1 | 6.38 | 5.59 | 4.92 | 5.34
Cn1c(=O)ccc2cc(NS(=O)(=O)c3ccc(C#N)c(Cl)c3)ccc21 | 5.60 | 6.35 | 5.64 | 5.14
